Results reported in US20150105252A1, “SUBSTITUTED PYRAZOLES AS HERBICIDES” (E I DU PONT DE NEMOURS AND COMPANY, priority 2013, published 2015).

Experiments:
[1] = tested on: foxtail, giant; experiment: Test A postemergence; format: in vivo, Setaria faberii
In short: (§1)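 Ratings express plant response from 0 (no effect) to 100 (complete control), judged visually against untreated controls after approximately 10 days in the greenhouse. Preemergence applications were made as directed soil sprays onto seeded loam–sand mix, and postemergence applications onto 2–10 cm plants at one- to two-leaf stage.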

[2] = tested on: johnsongrass; experiment: Test C preemergence; format: in vivo, Sorghum halepense; details: for Johnsongrass plant response rating / Plant response rating, Johnsongrass: preemergence; for Plant response rating, Johnsongrass: 125 g ai/ha, scale 0 to 100, 0 = no effect, 100 = complete control
In short: (§2)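 Herbicidal effect is expressed as percent visual control (0–100) judged against untreated plants 13 to 15 days after treatment in the greenhouse. Preemergence pots contained seeds in a soil–sand blend; postemergence plants, 2–18 cm tall, grew in peat-based planting medium.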

[3] = tested on: foxtail, giant; experiment: Test A preemergence; format: in vivo, Setaria faberii; details: preemergence
In short: as §1

[4] = tested on: crabgrass, large; experiment: Test C preemergence; format: in vivo, Digitaria sanguinalis; details: for Crabgrass, Large plant response rating / Plant response rating, Crabgrass, Large: preemergence; for Plant response rating, Crabgrass, Large: 125 g ai/ha, scale 0 to 100, 0 = no effect, 100 = complete control
In short: as §2

[5] = tested on: soybean; experiment: Test C preemergence; format: in vivo, Glycine max; details: for Soybean plant response rating / Plant response rating, Soybean: preemergence; for Plant response rating, Soybean: 125 g ai/ha, scale 0 to 100, 0 = no effect, 100 = complete control
In short: as §2

[6] = tested on: corn; experiment: Test A preemergence; format: in vivo, Zea mays; details: preemergence
In short: as §1

[7] = tested on: corn; experiment: Test C preemergence; format: in vivo, Zea mays; details: for Corn plant response rating / Plant response rating, Corn: preemergence; for Plant response rating, Corn: 125 g ai/ha, scale 0 to 100, 0 = no effect, 100 = complete control
In short: as §2

[8] = tested on: waterhemp; experiment: Test C preemergence; format: in vivo, Amaranthus rudis; details: for Waterhemp plant response rating / Plant response rating, Waterhemp: preemergence; for Plant response rating, Waterhemp: 125 g ai/ha, scale 0 to 100, 0 = no effect, 100 = complete control
In short: as §2

[9] = tested on: barnyardgrass; experiment: Test A preemergence; format: in vivo, Echinochloa crus-galli; details: preemergence
In short: as §1

[10] = tested on: pigweed; experiment: Test C preemergence; format: in vivo, Amaranthus retroflexus; details: for Pigweed plant response rating / Plant response rating, Pigweed: preemergence; for Plant response rating, Pigweed: 125 g ai/ha, scale 0 to 100, 0 = no effect, 100 = complete control
In short: as §2

[11] = tested on: barnyardgrass; experiment: Test C preemergence; format: in vivo, Echinochloa crus-galli; details: for Barnyardgrass plant response rating / Plant response rating, Barnyardgrass: preemergence; for Plant response rating, Barnyardgrass: 125 g ai/ha, scale 0 to 100, 0 = no effect, 100 = complete control
In short: as §2

[12] = tested on: velvetleaf; experiment: Test C preemergence; format: in vivo, Abutilon theophrasti; details: for Velvetleaf plant response rating / Plant response rating, Velvetleaf: preemergence; for Plant response rating, Velvetleaf: 125 g ai/ha, scale 0 to 100, 0 = no effect, 100 = complete control
In short: as §2

[13] = tested on: foxtail, giant; experiment: Test C preemergence; format: in vivo, Setaria faberii; details: for Foxtail, Giant plant response rating / Plant response rating, Foxtail, Giant: preemergence; for Plant response rating, Foxtail, Giant: 125 g ai/ha, scale 0 to 100, 0 = no effect, 100 = complete control
In short: as §2

[14] = tested on: morningglory; experiment: Test A postemergence; format: in vivo, Ipomoea spp.
In short: as §1

[15] = tested on: wheat; experiment: Test A postemergence; format: in vivo, Triticum aestivum
In short: as §1

[16] = Postemergence, 500 g ai/ha, 0 to 100 scale (0 no effect, 100 complete control)
[17] = postemergence, 125 g ai/ha, about 10 days, visual rating on 0 to 100 scale (0 no effect, 100 complete control)
[18] = 31 g ai/ha, visual rating, scale 0 to 100 (0 no effect, 100 complete control), 13 to 15 days
[19] = 62 g ai/ha, scale 0 to 100 (0 no effect, 100 complete control), 13 to 15 days
[20] = 125 g ai/ha, visual injury, 0 to 100 scale, approx. 10 days
[21] = 500 g ai/ha, visual injury after approx. 10 days, 0 to 100 scale (0 no effect, 100 complete control)
[22] = 31 g ai/ha, scale 0 to 100 (0 no effect, 100 complete control), 13 to 15 days
[23] = 250 g ai/ha, scale 0 to 100, 0 is no effect, 100 is complete control

CCCNC(=O)c1cc(CC)n(Cc2ccnc(OC(F)F)c2)n1 [Compound 132]
Foxtail, Giant plant response rating [1, 16]: 90 | Foxtail, Giant plant response rating [1, 17]: 80 | Plant response rating (scale of 0 to 100), Johnsongrass ([2]; Preemergence, 250 g ai/ha): 100 | Johnsongrass plant response rating [2, 18]: 25 | Johnsongrass plant response rating [2, 19]: 90 | Plant response rating, Johnsongrass ([2]; 13 to 15 days): 100 | Foxtail, Giant plant response rating [3, 20]: 100 | Foxtail, Giant plant response rating [3, 21]: 100 | Plant response rating (scale of 0 to 100), Crabgrass, Large ([4]; Preemergence, 250 g ai/ha): 100 | Crabgrass, Large plant response rating [4, 18]: 98 | Crabgrass, Large plant response rating [4, 19]: 100 | Plant response rating, Crabgrass, Large ([4]; 13 to 15 days): 100 | Plant response rating (scale of 0 to 100), Soybean ([5]; Preemergence, 250 g ai/ha): 95 | Soybean plant response rating [5, 18]: 35 | Soybean plant response rating [5, 19]: 75 | Plant response rating, Soybean ([5]; 13 to 15 days): 90 | Corn plant response rating [6, 20]: 40 | Corn plant response rating [6, 21]: 80 | Plant response rating (scale of 0 to 100), Corn ([7]; Preemergence, 250 g ai/ha): 95 | Corn plant response rating [7, 18]: 55 | Corn plant response rating [7, 19]: 25 | Plant response rating, Corn ([7]; 13 to 15 days): 95 | Plant response rating (scale of 0 to 100), Waterhemp ([8]; Preemergence, 250 g ai/ha): 100 | Waterhemp plant response rating [8, 18]: 100 | Waterhemp plant response rating [8, 19]: 100 | Plant response rating, Waterhemp ([8]; 13 to 15 days): 100 | Barnyardgrass plant response rating [9, 20]: 100 | Barnyardgrass plant response rating [9, 21]: 100 | Plant response rating (scale of 0 to 100), Pigweed ([10]; Preemergence, 250 g ai/ha): 100 | Pigweed plant response rating [10, 18]: 100 | Pigweed plant response rating [10, 19]: 100 | Plant response rating, Pigweed ([10]; 13 to 15 days): 100 | Plant response rating (scale of 0 to 100), Barnyardgrass ([11]; Preemergence, 250 g ai/ha): 100 | Barnyardgrass plant response rating [11, 22]: 95 | Barnyardgrass plant response rating [11, 19]: 100 | Plant response rating, Barnyardgrass ([11]; 13 to 15 days): 100 | Plant response rating (scale of 0 to 100), Velvetleaf ([12]; Preemergence, 250 g ai/ha): 100 | Velvetleaf plant response rating [12, 18]: 55 | Velvetleaf plant response rating [12, 19]: 100 | Plant response rating, Velvetleaf ([12]; 13 to 15 days): 100 | Plant response rating (scale of 0 to 100), Foxtail, Giant ([13]; Preemergence, 250 g ai/ha): 100 | Foxtail, Giant plant response rating [13, 18]: 95 | Foxtail, Giant plant response rating [13, 19]: 100 | Plant response rating, Foxtail, Giant ([13]; 13 to 15 days): 100 | Morningglory plant response rating [14, 16]: 100 | Morningglory plant response rating [14, 17]: 90 | Wheat plant response rating [15, 16]: 90 | Wheat plant response rating [15, 17]: 80

CCc1cc(C(=O)NC(C)C)nn1Cc1ccnc(C(F)(F)F)c1 [Compound 139]
Foxtail, Giant plant response rating [1, 16]: 90 | Foxtail, Giant plant response rating [1, 17]: 90 | Johnsongrass plant response rating [2, 18]: 10 | Johnsongrass plant response rating [2, 19]: 70 | Plant response rating, Johnsongrass ([2]; 13 to 15 days): 85 | Johnsongrass plant response rating [2, 23]: 98 | Foxtail, Giant plant response rating [3, 20]: 100 | Foxtail, Giant plant response rating [3, 21]: 100 | Crabgrass, Large plant response rating [4, 18]: 100 | Crabgrass, Large plant response rating [4, 19]: 100 | Plant response rating, Crabgrass, Large ([4]; 13 to 15 days): 100 | Crabgrass, Large plant response rating [4, 23]: 100 | Soybean plant response rating [5, 18]: 5 | Soybean plant response rating [5, 19]: 5 | Plant response rating, Soybean ([5]; 13 to 15 days): 30 | Soybean plant response rating [5, 23]: 60 | Corn plant response rating [6, 20]: 30 | Corn plant response rating [6, 21]: 90 | Corn plant response rating [7, 18]: 25 | Corn plant response rating [7, 19]: 30 | Plant response rating, Corn ([7]; 13 to 15 days): 85 | Corn plant response rating [7, 23]: 80 | Waterhemp plant response rating [8, 18]: 85 | Waterhemp plant response rating [8, 19]: 100 | Plant response rating, Waterhemp ([8]; 13 to 15 days): 100 | Waterhemp plant response rating [8, 23]: 100 | Barnyardgrass plant response rating [9, 20]: 90 | Barnyardgrass plant response rating [9, 21]: 100 | Pigweed plant response rating [10, 18]: 55 | Pigweed plant response rating [10, 19]: 90 | Plant response rating, Pigweed ([10]; 13 to 15 days): 90 | Pigweed plant response rating [10, 23]: 100 | Barnyardgrass plant response rating [11, 22]: 40 | Barnyardgrass plant response rating [11, 19]: 98 | Plant response rating, Barnyardgrass ([11]; 13 to 15 days): 100 | Barnyardgrass plant response rating [11, 23]: 100 | Velvetleaf plant response rating [12, 18]: 0 | Velvetleaf plant response rating [12, 19]: 10 | Plant response rating, Velvetleaf ([12]; 13 to 15 days): 95 | Velvetleaf plant response rating [12, 23]: 100 | Foxtail, Giant plant response rating [13, 18]: 90 | Foxtail, Giant plant response rating [13, 19]: 100 | Plant response rating, Foxtail, Giant ([13]; 13 to 15 days): 100 | Foxtail, Giant plant response rating [13, 23]: 100 | Morningglory plant response rating [14, 16]: 100 | Morningglory plant response rating [14, 17]: 60 | Wheat plant response rating [15, 16]: 90 | Wheat plant response rating [15, 17]: 50
